Assay [1] deals with HCT-116. Briefly: Cytotoxicity against human HCT-116 cells assessed as cell viability at 10 uM relative to control. It is filed as functional. The note with it: read-out: Activity.
Assay [2] has as its system HCT-116. Briefly: Cytotoxicity against human HCT-116 cells assessed as cell viability at 1 uM relative to control. Format: functional. As to conditions: read-out: Activity.
Assay [3] concerns HL-60. The assay is described as follows: Cytotoxicity against human HL-60 cells assessed as cell viability at 10 uM relative to control. It is filed as functional. The note with it: read-out: Activity.
Assay [4] deals with HL-60. Briefly: Cytotoxicity against human HL-60 cells assessed as cell viability at 1 uM relative to control. Format: functional. The note with it: read-out: Activity.
The subject of assay [5] is HL-60. Briefly: Cytotoxicity against human HL-60 cells assessed as reduction in cell viability. Format: functional, cell-based.
Assay [6] relates to HCT-116. Briefly: Cytotoxicity against human HCT-116 cells assessed as reduction in cell viability. It is filed as functional, cell-based.
For assay [7], the system named is HCT-116. Briefly: Growth inhibition of human HCT-116 cells at 1 uM relative to control. Also on record: scale not given: the % may be the effect or the level left. It is filed as functional.
[8] abbreviates: Homo sapiens, HL-60, read-out: IC50.

On to `O=C1C=C2C=C[C@@H]3C[C@]2(CN3Cc2ccccc2)O1`, for which the values for the viability at 10 µM in the assay on HCT-116 [1] and in the assay on HL-60 [3] were 86% and 3%, respectively. For the same molecule, the viability at 1 µM in the assay on HCT-116 [2] stood at 100%; in the assay on HL-60 [4] it was 11%. In addition, the IC50 in the assay on HL-60 [5] (setting [8]) was found to be 100 nM.
As for `COc1cccc2c1C(=O)c1c(O)c3c(c(O)c1C2=O)C[C@@](O)(C(=O)CO)C[C@@H]3O[C@H]1C[C@H](N)[C@H](O)[C@H](C)O1` [DOXORUBICIN], the concentration for half-maximal inhibition (IC50) is 10 nM with HCT-116 [6] and 90 nM in the assay with HL-60 [5] (hl-60).
Regarding `O=C1C=C2C(I)=C[C@@H]3C[C@]2(CN3Cc2ccccc2)O1`, the values for the viability at 10 µM in the assay with HCT-116 [1] and in the assay with HL-60 [3] were 1% and 0%, respectively. Further, the viability at 1 µM with HCT-116 [2] was determined as 5%; with HL-60 [4] it was 4%. Besides, the figures for the 50% inhibitory concentration (IC50) in the assay with HCT-116 [6] and with HL-60 [5] (setting [8]) were 60 nM and 350 nM, respectively. The Activity with HCT-116 [7] stood at 80.9%.
For `CC(C)CN1C[C@]23C[C@H]1C=CC2=CC(=O)O3`, the viability at 10 µM in the assay with HCT-116 [1] was 78%; with HL-60 [3], 1%. Besides, the viability at 1 µM in the assay with HCT-116 [2] is 83%; in the assay with HL-60 [4], 15%.
With `O=C1C=C2C=C[C@@H]3C[C@@]2(O1)[C@H]1CCCCN31` [SECURININE], the viability at 10 µM in the assay on HCT-116 [1] was 13%; in the assay on HL-60 [3] it was 0.4%. Also, the viability at 1 µM in the assay on HCT-116 [2] turned out to be 98%; in the assay on HL-60 [4] it was 8%. Also, the IC50 turned out to be 8600 nM in the assay on HCT-116 [6] and 100 nM in the assay on HL-60 [5] (setting [8]).

The record behind these values is ChEMBL document CHEMBL5154750 (Bioorg Med Chem, 2022).
